Test results published in ChEMBL document CHEMBL5154640, “Novel naphthyl based 1,2,4-trioxanes: Synthesis and in vivo efficacy in the Plasmodium yoelii nigeriensis in Swiss mice” (2021).
The source made the active and inactive calls. The rule behind the calls is not given here.

How the values were obtained:
[1] = system: Plasmodium yoelii nigeriensis; test: Antimalarial activity against Plasmodium yoelii nigeriensis infected in Swiss mouse assessed as suppression of parasitemia at 96 mg/kg, po measured after 4 days relative to control; format: functional; details: time 4 day
[2] = system: Plasmodium yoelii nigeriensis; test: Antimalarial activity against Plasmodium yoelii nigeriensis infected in Swiss mouse assessed as suppression of parasitemia at 96 mg/kg, im measured after 4 days relative to control; format: functional; details: time 4 day
[3] = system: Plasmodium yoelii nigeriensis; test: Antimalarial activity against Plasmodium yoelii nigeriensis infected in Swiss mouse assessed as suppression of parasitemia at 24 mg/kg, po measured after 4 days relative to control; format: functional; details: time 4 day
[4] = system: Plasmodium yoelii nigeriensis; test: Antimalarial activity against Plasmodium yoelii nigeriensis infected in Swiss mouse assessed as suppression of parasitemia at 24 mg/kg, im measured after 4 days relative to control; format: functional; details: time 4 day
[5] = system: Plasmodium yoelii nigeriensis; test: Antimalarial activity against Plasmodium yoelii nigeriensis infected in Swiss mouse assessed as suppression of parasitemia at 48 mg/kg, po measured after 4 days relative to control; format: functional; details: time 4 day
[6] = system: Plasmodium yoelii nigeriensis; test: Antimalarial activity against Plasmodium yoelii nigeriensis infected in Swiss mouse assessed as suppression of parasitemia at 48 mg/kg, im measured after 4 days relative to control; format: functional; details: time 4 day
[7] = system: Plasmodium yoelii nigeriensis; test: Antimalarial activity against Plasmodium yoelii nigeriensis infected in Swiss mouse assessed as survival at 96 mg/kg, po measured after 4 days relative to control; format: functional, organism-based; details: time 4.0 day
[8] = system: Plasmodium yoelii nigeriensis; test: Antimalarial activity against Plasmodium yoelii nigeriensis infected in Swiss mouse assessed as survival at 48 mg/kg, po measured after 4 days relative to control; format: functional, organism-based; details: time 4.0 day
[9] = system: Plasmodium yoelii nigeriensis; test: Antimalarial activity against Plasmodium yoelii nigeriensis infected in Swiss mouse assessed as survival at 48 mg/kg, im measured after 4 days relative to control; format: functional, organism-based; details: time 4.0 day

| SMILES | Activity [1] | Activity [2] | also measured |
| --- | --- | --- | --- |
| C=C(c1ccc(OCCO)c2ccccc12)C1COC(C)(C)OO1 (stereo not given) | 22.89% | 40% |  |
| C=C(c1ccc(OCCO)c2ccccc12)C1COC2(CCCCC2)OO1 (stereo not given) | 75.34% | 100% |  |
| C/C(=C/CO)C12OOC3(OC1CC(=O)c1ccccc12)C1CC2CC(C1)CC3C2 (stereo not given) | 45.68% | 35.89% |  |
| C/C(=C/CO)C12OOC(C)(C)OC1CC(=O)c1ccccc12 (stereo not given) | 53.17% | 37.81% |  |
| C=C(c1ccc(OCCO)c2ccccc12)C1COC2(CCCC2)OO1 (stereo not given) | 57.23% | 100% |  |
| C=C(c1ccc(OC(C)(C)CO)c2ccccc12)C1COC2(OO1)C1CC3CC(C1)CC2C3 (stereo not given) | 100% | 100% | Activity [3]: 100%; Activity [4]: 27.68%; Activity [5]: 100%; Activity [6]: 70.24%; Activity [7]: Active; Activity [8]: Active |
| C=C(c1ccc(O[Si](C)(C)C(C)(C)C)c2ccccc12)C1COC2(CCCCC2)OO1 (stereo not given) | 45.56% |  |  |
| C=C(c1ccc(OCCO)c2ccccc12)C1COC2(OO1)C1CC3CC(C1)CC2C3 (stereo not given) | 24.1% | 20.54% |  |
| C=C(c1ccc(OC(C)(C)CO)c2ccccc12)C1COC2(CCCC2)OO1 (stereo not given) | 100% | 100% | Activity [7]: Active |
| C/C(=C/CO)C12OOC3(CCCCC3)OC1CC(=O)c1ccccc12 (stereo not given) | 52.78% | 51.63% |  |
| C=C(c1ccc(OC(C)(C)CO)c2ccccc12)C1COC2(CCCCC2)OO1 (stereo not given) | 100% | 100% | Activity [7]: Active |
| C/C(=C/CO)C12OOC3(CCCC3)OC1CC(=O)c1ccccc12 (stereo not given) | 39.17% | 37.43% |  |
| C=C(c1ccc(O[Si](C)(C)C(C)(C)C)c2ccccc12)C1COC2(OO1)C1CC3CC(C1)CC2C3 (stereo not given) | 27.71% |  |  |
| C=C(c1ccc(O[Si](C)(C)C(C)(C)C)c2ccccc12)C1COC(C)(C)OO1 (stereo not given) | 14.7% |  |  |
| C=C(c1ccc(OC(C)(C)CO)c2ccccc12)C1COC(C)(C)OO1 (stereo not given) | 24.76% | 48.27% |  |
| C[C@@H]1CC[C@H]2[C@@H](C)C(=O)O[C@@H]3O[C@@]4(C)CC[C@@H]1[C@]32OO4 [ARTEMISININ] |  |  | Activity [4]: 100%; Activity [5]: 100%; Activity [6]: 100%; Activity [9]: Active |
| C=C(c1ccc(O[Si](C)(C)C(C)(C)C)c2ccccc12)C1COC2(CCCC2)OO1 (stereo not given) | 27.71% |  |  |
